Where two headings read alike, the source gives them in different places.
Tests used:
[1] = system: Mycosphaerella graminicola (Septoria tritici—SEPTTR); test: In vitro fungal growth inhibition, Mycosphaerella graminicola (SEPTTR); type: cell-based; details: Zymoseptoria tritici, read-out: SEPTTR in vitro Growth Inhibition
[2] = system: Puccinia recondita—PUCCRT; test: Brown Rust of Wheat, in vivo whole plant, 24 Hour Protectant; details: for pest or weed control at 100 ppm: Puccinia, read-out: PUCCRT in vivo 1 Day Protectant
[3] = system: Rhizoctonia solani (RHIZSO); test: microbe, parasite or virus in culture; type: cell-based; details: Rhizoctonia solani, read-out: RHIZSO in vitro Growth Inhibition
[4] = system: Leptosphaeria nodorum—LEPTNO; test: Glume Blotch of Wheat, in vivo whole plant, 24 Hour Protectant; details: for pest or weed control at 100 ppm: Leptosphaeria, read-out: LEPTNO in vivo 1 Day Protectant
[5] = system: Magnaporthe grisea (Pyricularia oryzae—PYRIOR); test: microbe, parasite or virus in culture; type: cell-based; details: Pyricularia oryzae, read-out: PYRIOR in vitro Growth Inhibition
[6] = system: Phytophthora infestans (PHYTIN); test: microbe, parasite or virus in culture; type: cell-based; details: Phytophthora infestans, read-out: PHYTIN in vitro Growth Inhibition
Erysiphe graminis—ERYSGT = test: Powdery Mildew of Wheat, in vivo whole plant, 24 Hour Protectant; details: for pest or weed control at 100 ppm: Erysiphe, read-out: ERYSGT in vivo 1 Day Protectant
Ustilago maydis (USTIMA) = test: microbe, parasite or virus in culture; type: cell-based; details: Mycosarcoma maydis, read-out: USTIMA in vitro Growth Inhibition
[7] = system: Phytophthora infestans—PHYTIN; test: whole plant or invertebrate; type: in vivo; details: Phytophthora, in Solanum lycopersicum, 24 h, read-out: PHYTIN in vivo 1 Day Protectant
Septoria tritici—SEPTTR = test: Leaf Blotch of Wheat, in vivo whole plant, 24 Hour Protectant; details: for pest or weed control at 100 ppm: Zymoseptoria tritici, 24 h, read-out: SEPTTR in vivo 1 Day Protectant
[8] = system: Stagonospora nodorum (Leptosphaeria nodorum—LEPTNO); test: In vitro fungal growth inhibition, Stagonospora nodorum (LEPTNO); type: cell-based; details: Leptosphaeria, read-out: LEPTNO in vitro Growth Inhibition
[9] = 100 ppm spray, wheat, 24 hour protectant, % control of fungal infection vs untreated plants
[10] = wheat plants sprayed at 100 ppm, inoculated after 24 hours, control of fungal infection vs untreated plants
[11] = 100 ppm spray, 24 hour protectant, wheat, control of fungal infection vs untreated plants

| SMILES | inhibition at 25 ppm ([1]; 25 ppm in growth medium) [%] | inhibition at 25 ppm [3] [%] | melting point | inhibition at 25 ppm [5] [%] | inhibition at 25 ppm [6] [%] | inhibition at 25 ppm (Ustilago maydis (USTIMA)) [%] | pest or weed control at 100 ppm [7] [%] | inhibition at 25 ppm ([8]; 25 ppm in growth medium) [%] | inhibition at 25 ppm ([1]; 25 ppm in the growth medium) [%] | pest or weed control at 100 ppm [2, 10] [%] | pest or weed control at 100 ppm [4, 10] [%] | pest or weed control at 100 ppm (Erysiphe graminis—ERYSGT; [10]) [%] | pest or weed control at 100 ppm (Septoria tritici—SEPTTR; [10]) [%] | inhibition at 25 ppm ([8]; 25 ppm in the growth medium) [%] | pest or weed control at 100 ppm [2, 11] [%] | pest or weed control at 100 ppm [4, 11] [%] | pest or weed control at 100 ppm (Erysiphe graminis—ERYSGT; [11]) [%] | pest or weed control at 100 ppm (Septoria tritici—SEPTTR; [11]) [%] | also measured |
| --- | --- | --- | --- | --- | --- | --- | --- | --- | --- | --- | --- | --- | --- | --- | --- | --- | --- | --- | --- |
| COCCC(=O)Oc1c(OC)ccnc1C(=O)Nc1cccc(C(=O)Nc2ccc(C(F)(F)F)cc2)c1 [Compound 714] | < 80 | < 80 | 187 to 189 °C | < 80 | < 80 | < 80 | < 25 | < 80 |  |  |  |  |  |  |  |  |  |  | pest or weed control at 100 ppm [2, 9]: < 25%; pest or weed control at 100 ppm [4, 9]: 25 to 74%; pest or weed control at 100 ppm (Erysiphe graminis—ERYSGT; [9]): < 25%; pest or weed control at 100 ppm (Septoria tritici—SEPTTR; [9]): 25 to 74% |
| O=C(Nc1cccc(Oc2ccccc2)c1)c1cccnc1O [Compound 521] |  | < 80 | 200 to 201 °C | < 80 | < 80 | < 80 | 25 to 74 |  | < 80 | < 25 | 25 to 74 | < 25 | < 25 | < 80 |  |  |  |  |  |
| Cc1ccnc(C(=O)Nc2ccc(Oc3cccc(C(F)(F)F)c3)cc2)c1O [Compound 238] | < 80 | < 80 | 105 to 107 °C | < 80 | < 80 | < 80 | < 25 | < 80 |  |  |  |  |  |  | < 25 | 25 to 74 | < 25 | < 25 |  |
| O=C(NCc1ccccn1)c1nc(Br)ccc1O [Compound 483] |  | < 80 | 124 to 126 °C | < 80 | < 80 | < 80 | < 25 |  | < 80 | < 25 | < 25 | < 25 | < 25 | > 80 |  |  |  |  |  |
| O=C(NCc1ccccc1Cl)c1ncccc1O [Compound 218] | < 80 | > 80 | 97 to 99 °C | > 80 | > 80 | > 80 | < 25 | > 80 |  |  |  |  |  |  | < 25 | < 25 | < 25 | < 25 |  |
| COCCC(=O)Oc1c(OC)ccnc1C(=O)N[C@H]1COC(=O)[C@H](Cc2ccccc2)[C@@H](OC(=O)C(C)(C)C)[C@H](C)OC1=O [Compound 703] | < 80 | < 80 | 144 to 145 °C | < 80 | < 80 | < 80 | < 25 | > 80 |  |  |  |  |  |  |  |  |  |  | PUCCRT in vivo 1 Day Protectant [2, 9]: + +; LEPTNO in vivo 1 Day Protectant [4, 9]: + +; ERYSGT in vivo 1 Day Protectant (Erysiphe graminis—ERYSGT; [9]): + +; SEPTTR in vivo 1 Day Protectant (Septoria tritici—SEPTTR; [9]): + + |
| CC(C)(C)C1CCC(NC(=O)c2cnccc2O)CC1 (stereo not drawn) [Compound 504] |  | < 80 | 70 to 78 °C | < 80 | < 80 | < 80 | < 25 |  | < 80 | < 25 | 25 to 74 | < 25 | < 25 | > 80 |  |  |  |  |  |
| Cc1ccnc(C(=O)NC2CC(C)(C)CC(C)(C)C2)c1O [Compound 236] | < 80 | < 80 | 42 to 45 °C | < 80 | < 80 | < 80 | < 25 | > 80 |  |  |  |  |  |  | < 25 | < 25 | < 25 | < 25 |  |
| COc1ccnc(C(=O)N[C@H]2CC[C@@H](Oc3ccc(C(F)(F)F)cc3)CC2)c1O [Compound 271] | > 80 | > 80 | 181 to 183 °C (dec.) | > 80 | > 80 | > 80 | 25 to 74 | > 80 |  |  |  |  |  |  | < 25 | 25 to 74 | < 25 | 25 to 74 |  |
| CC(C)C(=O)O[C@H]1[C@H](C)OC(=O)[C@@H](NC(=O)c2nnccc2O)COC(=O)[C@@H]1Cc1ccccc1 [Compound 532] |  | < 80 | 233 °C (dec.) | < 80 | < 80 | < 80 | 25 to 74 |  | < 80 | 25 to 74 | 25 to 74 | 25 to 74 | 25 to 74 | < 80 |  |  |  |  |  |
| COc1ccnc(C(=O)NC2c3ccccc3CC2(C)C)c1O (stereo not drawn) [Compound 284] | < 80 | < 80 | 122 to 128 °C | < 80 | < 80 | < 80 | < 25 | < 80 |  |  |  |  |  |  | 25 to 74 | 25 to 74 | < 25 | 25 to 74 |  |

Source: patent publication US6706740B2, “Fungicidal heterocyclic aromatic amides and their compositions, methods of use and preparation” (Dow AgroSciences LLC, priority 1999, dated 2004)
